# Data reported in patent publication US20240384350A1, “METHODS OF TREATING CANCER WITH KINASE INHIBITORS” (BOARD OF REGENTS, THE UNIVERSITY OF TEXAS SYSTEM, priority 2021, published 2024).
# Columns and labels:
# Assay in all cases: Ba/F3 drug screening, Cell Titer Glo, IC50 Mut/WT
# Type in all cases: cell-based
# EGFR E709K = target: T1, EGFR E709K (Homo sapiens, UniProt P00533, E709K); details: PACC; E709K; Ba/F3; 72 hours
# T1 construct: expressed in transfected cells; host or cells: Ba/F3
# Protocol: (§1) Data represent the ratio of the IC50 value for a given TKI for cells with a PACC EGFR mutation to the IC50 value for cells with wildtype EGFR.
# (§2) Ba/F3 cell generation, drug screening, and IC50 approximations. Ba/F3 cells were obtained as a gift from Dr. Gordon Mills (MD Anderson Cancer Center), and maintained in RPMI (Sigma) containing 10% FBS, 1% penicillin/streptomycin, and 10 ng/ml recombinant mIL-3 (R&D Biosystems). To establish stable Ba/F3 cell lines, Ba/F3 cells were transduced with retroviruses containing mutant EGFR plasmids for 12-24 hours.
# (§3) After 48-72 hours of transduction, 2 μg/ml puromycin (Invitrogen) was added to Ba/F3 cell lines in complete RPMI. To select for EGFR positive cell lines, cells were stained with PE-EGFR (Biolegend) and sorted by FACS. After sorting, EGFR positive cells were maintained in RPMI containing 10% FBS, 1% penicillin/streptomycin, and 1 ng/ml EGF to support cell viability. Drug screening was performed as previously described^41,42. Shortly, cells were plated in 384-well plates (Greiner Bio-One) at 2000-3000 cells per well in technical triplicate. Seven different concentrations of TKIs or DMSO vehicle were added to reach a final volume of 40 μL per well. After 72 hours, 11 μL of Cell Titer Glo (Promega) was added to each well. Plates were incubated for a minimum of 10 minutes, and bioluminescence was determined using a FLUOstar OPTIMA plate reader (BMG LABTECH). Raw bioluminescence values were normalized to DMSO control treated cells, and values were plotted in GraphPad Prism. […] Drug screens were performed in technical triplicate on each plate and either duplicate or triplicate biological replicates.
# EGFR L858R = target: T2, EGFR L858R (Homo sapiens, UniProt P00533, L858R); details: Classical-Like, 72 hours
# T2 construct: expressed in transfected cells; host or cells: Ba/F3 cells, retroviral pBabe-Puro vector
# Protocol: (§4) Data represent the ratio of the IC50 value for a given TKI for cells with a classical-like EGFR mutation to the IC50 value for cells with wildtype EGFR.
# as §2
# (§5) After 48-72 hours of transduction, 2 μg/ml puromycin (Invitrogen) was added to Ba/F3 cell lines in complete RPMI. To select for EGFR positive cell lines, cells were stained with PE-EGFR (Biolegend) and sorted by FACS. After sorting, EGFR positive cells were maintained in RPMI containing 10% FBS, 1% penicillin/streptomycin, and 1 ng/ml EGF to support cell viability. […] Shortly, cells were plated in 384-well plates (Greiner Bio-One) at 2000-3000 cells per well in technical triplicate. Seven different concentrations of TKIs or DMSO vehicle were added to reach a final volume of 40 μL per well. After 72 hours, 11 μL of Cell Titer Glo (Promega) was added to each well. Plates were incubated for a minimum of 10 minutes, and bioluminescence was determined using a FLUOstar OPTIMA plate reader (BMG LABTECH). Raw bioluminescence values were normalized to DMSO control treated cells, and values were plotted in GraphPad Prism. […] Drug screens were performed in technical triplicate on each plate and either duplicate or triplicate biological replicates.
# EGFR G719A/R776C = target: T3, EGFR G719A/R776C (Homo sapiens, UniProt P00533, G719A/R776C); details: PACC; G719A/R776C; Ba/F3; 72 hours
# T3 construct: expressed in transfected cells; host or cells: Ba/F3
# EGFR H773insNPH = target: T4, EGFR H773insNPH (Homo sapiens, UniProt P00533, INS773NPH); details: Ex20, 72 hours
# T4 construct: expressed in transfected cells; host or cells: Ba/F3 cells, retroviral pBabe-Puro vector
# Protocol: (§6) Data represent the ratio of the IC50 value for a given TKI for cells with an ex20ins EGFR mutation to the IC50 value for cells with wildtype EGFR.
# as §2
# (§7) After 48-72 hours of transduction, 2 μg/ml puromycin (Invitrogen) was added to Ba/F3 cell lines in complete RPMI. To select for EGFR positive cell lines, cells were stained with PE-EGFR (Biolegend) and sorted by FACS. After sorting, EGFR positive cells were maintained in RPMI containing 10% FBS, 1% penicillin/streptomycin, and 1 ng/ml EGF to support cell viability. Drug screening was performed as previously described^41,42. Shortly, cells were plated in 384-well plates (Greiner Bio-One) at 2000-3000 cells per well in technical triplicate. Seven different concentrations of TKIs or DMSO vehicle were added to reach a final volume of 40 μL per well. After 72 hours, 11 μL of Cell Titer Glo (Promega) was added to each well. Plates were incubated for a minimum of 10 minutes, and bioluminescence was determined using a FLUOstar OPTIMA plate reader (BMG LABTECH). Raw bioluminescence values were normalized to DMSO control treated cells, and values were plotted in GraphPad Prism. […] Drug screens were performed in technical triplicate on each plate and either duplicate or triplicate biological replicates. […] Statistical differences between groups were determined by ANOVA as described in the figure legends.
# EGFR Ex19del L718V = target: T5, EGFR Ex19del L718V (Homo sapiens, UniProt P00533, DEL746-750/L718V); details: PACC; Ex19del L718V; Ba/F3; 72 hours
# T5 construct: expressed in transfected cells; host or cells: Ba/F3
# Protocol: as §1, §2, §3
# EGFR S768I/V769L = target: T6, EGFR S768I/V769L (Homo sapiens, UniProt P00533, S768I/V769L); details: PACC; S768I/V769L; Ba/F3; 72 hours
# T6 construct: host or cells: Ba/F3
# Protocol: as §1, §2, §3
# EGFR Ex19del/L792H = target: T7, EGFR Ex19del/L792H (Homo sapiens, UniProt P00533, DEL746-750/L792H); details: PACC; Ex19del/L792H; Ba/F3; 72 hours
# T7 construct: expressed in transfected cells; host or cells: Ba/F3
# Protocol: as §1, §2, §3
# EGFR T725M = target: T8, EGFR T725M (Homo sapiens, UniProt P00533, T725M); details: Classical-Like, 72 hours
# T8 construct: expressed in transfected cells; host or cells: Ba/F3 cells, retroviral pBabe-Puro vector (vector made by GeneScript from EGFR WT)
# Protocol: as §4, §2, §5
# EGFR L858R/C797S = target: T9, EGFR L858R/C797S (Homo sapiens, UniProt P00533, C797S/L858R); details: PACC; L858R/C797S; Ba/F3; 72 hours
# T9 construct: expressed in transfected cells; host or cells: Ba/F3
# Protocol: as §1, §2, §3
# EGFR Ex19del T854I = target: T10, EGFR Ex19del T854I (Homo sapiens, UniProt P00533, DEL746-750/T854I); details: PACC; Ex19del T854I; Ba/F3; 72 hours
# T10 construct: expressed in transfected cells; host or cells: Ba/F3 (retroviral transduction, pBabe-Puro based vectors)
# EGFR E709A = target: T11, EGFR E709A (Homo sapiens, UniProt P00533, E709A); details: PACC; E709A; Ba/F3; 72 hours
# T11 construct: expressed in transfected cells; host or cells: Ba/F3
# EGFR S768I V774M = target: T12, EGFR S768I V774M (Homo sapiens, UniProt P00533, S768I/V774M); details: PACC; S768I V774M; Ba/F3; 72 hours
# T12 construct: host or cells: Ba/F3
# EGFR Ex19del/T790M/L792H = target: T13, EGFR Ex19del/T790M/L792H (Homo sapiens, UniProt P00533, DEL746-750/L792H/T790M); details: T790M-like-3R, 72 hours
# T13 construct: expressed in transfected cells; host or cells: Ba/F3
# Protocol: Data represent the ratio of the IC50 value for a given TKI for cells with a T790M-like-3R EGFR mutation to the IC50 value for cells with wildtype EGFR.
# as §2
# After 48-72 hours of transduction, 2 μg/ml puromycin (Invitrogen) was added to Ba/F3 cell lines in complete RPMI. To select for EGFR positive cell lines, cells were stained with PE-EGFR (Biolegend) and sorted by FACS. After sorting, EGFR positive cells were maintained in RPMI containing 10% FBS, 1% penicillin/streptomycin, and 1 ng/ml EGF to support cell viability. […] Shortly, cells were plated in 384-well plates (Greiner Bio-One) at 2000-3000 cells per well in technical triplicate. Seven different concentrations of TKIs or DMSO vehicle were added to reach a final volume of 40 μL per well. After 72 hours, 11 μL of Cell Titer Glo (Promega) was added to each well. Plates were incubated for a minimum of 10 minutes, and bioluminescence was determined using a FLUOstar OPTIMA plate reader (BMG LABTECH). Raw bioluminescence values were normalized to DMSO control treated cells, and values were plotted in GraphPad Prism. […] Drug screens were performed in technical triplicate on each plate and either duplicate or triplicate biological replicates. […] Statistical differences between groups were determined by ANOVA as described in the figure legends.
# EGFR L858R/T790M/C797S = target: T14, EGFR L858R/T790M/C797S (Homo sapiens, UniProt P00533, C797S/L858R/T790M); details: T790M-like-3R, 72 hours
# T14 construct: expressed in transfected cells; host or cells: Ba/F3
# EGFR V774M = target: T15, EGFR V774M (Homo sapiens, UniProt P00533, V774M); details: PACC; V774M; Ba/F3; 72 hours
# T15 construct: host or cells: Ba/F3
# Protocol: as §1, §2, §3
# EGFR L858R/L718V = target: T16, EGFR L858R/L718V (Homo sapiens, UniProt P00533, L718V/L858R); details: PACC; L858R/L718V; Ba/F3; 72 hours
# T16 construct: host or cells: Ba/F3
# Protocol: as §1, §2, §3
# EGFR L858R/L792H = target: T17, EGFR L858R/L792H (Homo sapiens, UniProt P00533, L792H/L858R); details: PACC; L858R/L792H; Ba/F3; 72 hours
# T17 construct: expressed in transfected cells; host or cells: Ba/F3
# EGFR Ex19del G724S = target: T18, EGFR Ex19del G724S (Homo sapiens, UniProt P00533, DEL746-750/G724S); details: PACC; Ex19del G724S; Ba/F3; 72 hours
# T18 construct: expressed in transfected cells; host or cells: Ba/F3
# Protocol: as §1, §2, §3
# EGFR S768dupSVD = target: T19, EGFR S768dupSVD (Homo sapiens, UniProt P00533, DUP768-770); details: Ex20, 72 hours
# T19 construct: expressed in transfected cells; host or cells: Ba/F3 cells, retroviral pBabe-Puro vector
# Protocol: as §6, §2, §7
# EGFR S784F = target: T20, EGFR S784F (Homo sapiens, UniProt P00533, S784F); details: Classical-Like, 72 hours
# T20 construct: expressed in transfected cells; host or cells: Ba/F3 cells, retroviral pBabe-Puro vector (vector made by GeneScript from EGFR WT)
# EGFR L858R/V834L = target: T21, EGFR L858R/V834L (Homo sapiens, UniProt P00533, L858R/V834L); details: Classical-Like, 72 hours
# T21 construct: expressed in transfected cells; host or cells: Ba/F3 cells, retroviral pBabe-Puro vector
# Protocol: as §4, §2, §5
# EGFR L718Q T790M = target: T22, EGFR L718Q T790M (Homo sapiens, UniProt P00533, L718Q/T790M); details: T790M-like-3R, 72 hours
# T22 construct: expressed in transfected cells; host or cells: Ba/F3
# EGFR Ex19del T790M = target: T23, EGFR Ex19del T790M (Homo sapiens, UniProt P00533, DEL746-750/T790M); details: T790M-like-3S, 72 hours
# T23 construct: expressed in transfected cells; host or cells: Ba/F3
# Protocol: Data represent the ratio of the IC50 value for a given TKI for cells with a T790M-like-3S EGFR mutation to the IC50 value for cells with wildtype EGFR.
# as §2, §3
# EGFR K757R = target: T24, EGFR K757R (Homo sapiens, UniProt P00533, K757R); details: PACC; K757R; Ba/F3; 72 hours
# T24 construct: expressed in transfected cells; host or cells: Ba/F3
# Protocol: as §1, §2, §7
# EGFR D761N = target: T25, EGFR D761N (Homo sapiens, UniProt P00533, D761N); details: Classical-Like, 72 hours
# T25 construct: expressed in transfected cells; host or cells: Ba/F3 cells, retroviral pBabe-Puro vector
# Protocol: as §4, §2, §5
# EGFR Ex19del = target: T26, EGFR Ex19del (Homo sapiens, UniProt P00533, DEL746-750); details: Classical-Like, 72 hours
# T26 construct: expressed in transfected cells; host or cells: Ba/F3 cells, retroviral pBabe-Puro vector
# Protocol: as §4, §2, §5
smiles,measurement,setting,value
COc1cc2ncnc(Nc3cccc(Cl)c3F)c2cc1OC(=O)N1CCN(C)C[C@H]1C [AZD3759],ratio of IC50 for cells with mutant EGFR to IC50 for cells with wildtype EGFR (Mut/WT),EGFR E709K,0.3129
same,ratio of IC50 for cells with mutant EGFR to IC50 for cells with wildtype EGFR (Mut/WT),EGFR L858R,0.00585
same,ratio of IC50 for cells with mutant EGFR to IC50 for cells with wildtype EGFR (Mut/WT),EGFR G719A/R776C,0.2006
same,ratio of IC50 for cells with mutant EGFR to IC50 for cells with wildtype EGFR (Mut/WT),EGFR H773insNPH,1.561
same,ratio of IC50 for cells with mutant EGFR to IC50 for cells with wildtype EGFR (Mut/WT),EGFR Ex19del L718V,0.04127
same,ratio of IC50 for cells with mutant EGFR to IC50 for cells with wildtype EGFR (Mut/WT),EGFR S768I/V769L,0.7072
same,ratio of IC50 for cells with mutant EGFR to IC50 for cells with wildtype EGFR (Mut/WT),EGFR Ex19del/L792H,9.625
same,ratio of IC50 for cells with mutant EGFR to IC50 for cells with wildtype EGFR (Mut/WT),EGFR T725M,0.1059
same,ratio of IC50 for cells with mutant EGFR to IC50 for cells with wildtype EGFR (Mut/WT),EGFR L858R/C797S,0.001895
same,ratio of IC50 for cells with mutant EGFR to IC50 for cells with wildtype EGFR (Mut/WT),EGFR Ex19del T854I,1.509
same,ratio of IC50 for cells with mutant EGFR to IC50 for cells with wildtype EGFR (Mut/WT),EGFR E709A,0.1241
same,ratio of IC50 for cells with mutant EGFR to IC50 for cells with wildtype EGFR (Mut/WT),EGFR S768I V774M,0.2555
same,ratio of IC50 for cells with mutant EGFR to IC50 for cells with wildtype EGFR (Mut/WT),EGFR Ex19del/T790M/L792H,9.625
same,ratio of IC50 for cells with mutant EGFR to IC50 for cells with wildtype EGFR (Mut/WT),EGFR L858R/T790M/C797S,9.625
same,ratio of IC50 for cells with mutant EGFR to IC50 for cells with wildtype EGFR (Mut/WT),EGFR V774M,0.3139
same,ratio of IC50 for cells with mutant EGFR to IC50 for cells with wildtype EGFR (Mut/WT),EGFR L858R/L718V,0.2408
same,ratio of IC50 for cells with mutant EGFR to IC50 for cells with wildtype EGFR (Mut/WT),EGFR L858R/L792H,0.03125
same,ratio of IC50 for cells with mutant EGFR to IC50 for cells with wildtype EGFR (Mut/WT),EGFR Ex19del G724S,4.812
same,ratio of IC50 for cells with mutant EGFR to IC50 for cells with wildtype EGFR (Mut/WT),EGFR S768dupSVD,3.075
same,ratio of IC50 for cells with mutant EGFR to IC50 for cells with wildtype EGFR (Mut/WT),EGFR S784F,0.0702
same,ratio of IC50 for cells with mutant EGFR to IC50 for cells with wildtype EGFR (Mut/WT),EGFR L858R/V834L,0.002241
same,ratio of IC50 for cells with mutant EGFR to IC50 for cells with wildtype EGFR (Mut/WT),EGFR L718Q T790M,9.625
same,ratio of IC50 for cells with mutant EGFR to IC50 for cells with wildtype EGFR (Mut/WT),EGFR Ex19del T790M,12.68
same,ratio of IC50 for cells with mutant EGFR to IC50 for cells with wildtype EGFR (Mut/WT),EGFR K757R,0.7085
same,ratio of IC50 for cells with mutant EGFR to IC50 for cells with wildtype EGFR (Mut/WT),EGFR D761N,0.6757
same,ratio of IC50 for cells with mutant EGFR to IC50 for cells with wildtype EGFR (Mut/WT),EGFR Ex19del,0.0001195
